{"source": "ChEMBL document CHEMBL1145134", "about": "“Inclusion complexation and solubilization of paclitaxel by bridged bis(beta-cyclodextrin)s containing a tetraethylenepentaamino spacer” (2003)", "tested_on": "K562", "assay": "Antiproliferative activity of the paclitaxel-TPCD complex was tested against K562 erythroleukemia after 72 hr at a concentration of 1E-6 mg/mL using MTT cytotoxicity assay", "format": "functional, Homo sapiens"}
{"smiles": "CC(=O)O[C@H]1C(=O)[C@@]2(C)[C@H]([C@H](OC(=O)c3ccccc3)[C@]3(O)C[C@H](OC(=O)[C@H](O)[C@@H](NC(=O)c4ccccc4)c4ccccc4)C(C)=C1C3(C)C)[C@]1(OC(C)=O)CO[C@@H]1C[C@@H]2O", "note": "[PACLITAXEL]", "values": [{"measurement": "Activity", "value": 57.7, "unit": "%"}]}
